# Assay results as given in publication PMC5008636, “Phosphatidylserine and Phosphatidylethanolamine Bind to Protein Z Cooperatively and with Equal Affinity” (PLoS ONE, 2016).
# Entries after “also recorded” stand apart in the source; their conditions may differ. Read-outs that look alike come from different tables or passages of the source.
# Assays:
# PZ [1] = molecular target: T1, PZ (Homo sapiens, UniProt P22891); assay: Binding of soluble lipids to PZ by intrinsic tryptophan fluorescence; settings: for effect of pre-incubation of PZ with C6PS on affinity of PZ towards the lipid: saturating amount of C6PS; for lower binding affinity to PZ compared to PS and PE: soluble lipids, 5 mM Ca2+; for Kd in 1 mM Ca2+ relative to Kd in 5 mM Ca2+: 1 mM vs 5 mM Ca2+; for binding to PZ with excess EDTA: 5 mM EDTA in the assay buffer
# T1 construct: purchased Enzyme Research Laboratories (South Bend, IN, USA)
# Experimental: (§1) PZ intrinsic tryptophan fluorescence as a function of increasing concentration of soluble phospholipid was measured as described in [12] using a FluoroLog spectrofluorometer (Horiba Jobin-Yvon Inc., Edison, NJ) with an excitation wavelength of 285nm (band-pass 4 nm); emission was recorded at 340 nm (band-pass 4 nm). Each experiment was performed below the critical micelle concentration (CMC) of the soluble lipid. The CMC was determined under experimental conditions following pyrene fluorescence as a function of increasing lipid concentration. Apparent dissociation constants for binding of PZ to soluble lipids were obtained by fitting the experimental data to a simple, single-site binding model, using the assumption that [C6PL]free ≈ [C6PL]total
# human fXa = human fXa (Homo sapiens, UniProt P00742); assay: FXa inhibition assay: AT-mediated inhibition of fXa amidolytic activity (S2765); type: biochemical; settings: 40 nM PZ, 3 μM AT, no membrane
# Experimental: Amidolytic activity of human fXa was measured in an assay mixtures containing 5 nM fXa, 3 μM AT, 50 μM phospholipid membrane (DOPS:DOPC, DOPE:DOPC, and only DOPC) and 40 nM PZ in buffer (50 mM Tris, 175 mM NaCl, 0.6% PEG, 5 mM CaCl2, pH 7.4 using the substrate S2765 according to the method described in [31]. Briefly, mixtures (150 μl) containing fXa in appropriate buffer were incubated with or without PZ and with or without membrane at 37°C in the wells of a microtiter plate for 5 mins before adding AT to that. 1 mM of substrate S2765 was added then and initial rate of substrate cleavage was determined by measuring the absorbance at 405 nm using the plate reader (Molecular Devices, CA, USA). Factor Xa activity was determined by comparing the initial rate of substrate cleavage with a standard curve produced with various concentrations of factor Xa in the same buffer conditions.
# fXa = molecular target: fXa; set-up: method as in PMID 21859710; settings: soluble lipid; read-out: Kd for binding of fXa; cited from earlier work
# [2] = Critical micelle concentration by pyrene fluorescence; type: physicochemical; settings: under experimental conditions
# Experimental: as §1
# Since pyrene is hydrophobic, partitioning into the interior of a micelle is manifested as a sharp increase in the ratio of the intensity of the pyrene emissions at 373 and 383 nm.
# PZ [3] = molecular target: T1, PZ; assay: Equilibrium dialysis of soluble C6PS/C6PE binding to PZ; settings: for Stoichiometry (Average) of lipid binding to PZ / ΔP (difference in phosphate concentration): 250 μM lipid, 5 mM Ca2+; for Stoichiometry (Average) of lipid binding to PZ: PZ 15, 20, 30 μM, calculated from Eq (1); for binding to PZ in equilibrium dialysis without Ca2+: absence of Ca2+ and presence of EDTA in the buffer
# Experimental: Experiments were performed using 2.0-ml Teflon dialysis cells (Harvard Apparatus, Holliston, MA) with the two cells separated by a 2000 Da molecular weight cut-off membrane. Both chambers contained equal amount of […], and one chamber contained the appropriate amount of PZ. Both chambers were allowed to equilibrate with each other at room temperature for 24 h while being rotated horizontally at 20 rpm. […] where, n is the stoichiometry of binding, [L] is the concentration of phospholipid added to the chamber, [P] is the protein concentration present in one half of the chamber, and Kd is the binding constant obtained from fluorescence experiments. Total protein concentration, [P], must be large enough to detect a measurable difference in phosphate concentration between the two chambers. In a recent analysis of soluble lipid binding to two non-equivalent sites on fIXa, it was shown that a narrow protein concentration range was sufficient to obtain stoichiometries for each site. […] For each protein concentration, three aliquots were withdrawn and phosphate concentrations were measured.
# [4] = 150 nM PZ, 5 mM CaCl2, pH 7.5, 25° C, no pre-incubation lipid, single-site binding model, read-out: apparent Kd for binding to PZ
# [5] = 1 mM Ca2+, read-out: binding Kd to PZ in presence of 1 mM Ca2+
# T1 sequence (P22891 41-400): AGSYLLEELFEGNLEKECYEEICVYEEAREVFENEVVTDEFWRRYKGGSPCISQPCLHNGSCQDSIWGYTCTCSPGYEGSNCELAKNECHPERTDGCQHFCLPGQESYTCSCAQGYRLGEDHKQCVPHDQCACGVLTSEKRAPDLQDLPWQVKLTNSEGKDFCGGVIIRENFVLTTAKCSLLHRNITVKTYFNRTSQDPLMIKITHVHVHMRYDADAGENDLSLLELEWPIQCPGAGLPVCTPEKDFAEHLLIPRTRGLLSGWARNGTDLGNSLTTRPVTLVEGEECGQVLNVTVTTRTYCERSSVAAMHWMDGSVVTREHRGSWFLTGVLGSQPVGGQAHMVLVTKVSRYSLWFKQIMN
# Chain of human fXa (P00742 41-179 limits assumed): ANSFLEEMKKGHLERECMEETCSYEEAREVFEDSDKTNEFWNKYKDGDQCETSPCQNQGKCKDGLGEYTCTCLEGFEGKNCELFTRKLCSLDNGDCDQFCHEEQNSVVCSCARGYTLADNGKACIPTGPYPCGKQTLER
# Chain of human fXa (P00742 235-488 limits assumed): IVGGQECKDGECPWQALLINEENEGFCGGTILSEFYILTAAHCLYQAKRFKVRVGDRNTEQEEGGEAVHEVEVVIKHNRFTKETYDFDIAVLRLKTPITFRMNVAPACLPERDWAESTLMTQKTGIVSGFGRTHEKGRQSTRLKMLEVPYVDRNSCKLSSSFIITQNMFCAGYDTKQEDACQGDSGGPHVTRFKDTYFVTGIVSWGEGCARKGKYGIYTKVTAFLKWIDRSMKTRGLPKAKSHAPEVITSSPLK
compound,measurement,setting,value
CCCCCC(=O)OC[C@H](COP(=O)([O-])OCC[N+](C)(C)C)OC(=O)CCCCC [C6PC],Kd,PZ [1]; [4],129 ± 32 µM
same,effect of pre-incubation of PZ with C6PS on affinity of PZ towards the lipid,PZ [1],did not alter the affinity; also recorded: did not enhance the affinity
same,lower binding affinity to PZ compared to PS and PE,PZ [1],~ 3 fold
"PZ: human Protein Z, 62 kDa vitamin K-dependent cofactor",effect of inclusion of PZ on AT inhibition of fXa,human fXa,essentially no effect
CCCCCC(=O)OC[C@H](COP(=O)(O)OC[C@@H](N)C(=O)O)OC(=O)CCCCC [C6(D)PS],Kd,PZ [1]; [4],911 ± 300 µM
CCCCCC(=O)OC[C@H](COP(=O)(O)O)OC(=O)CCCCC [C6PA],Kd,PZ [1]; [4],165 ± 25 µM
same,effect of pre-incubation of PZ with C6PS on affinity of PZ towards the lipid,PZ [1],did not alter the affinity; also recorded: did not enhance the affinity
same,lower binding affinity to PZ compared to PS and PE,PZ [1],~ 3 fold
"CCCCCC(=O)OC[C@H](COP(=O)(O)OCCN)OC(=O)CCCCC [C6PE, 1,2-dicaproyl-sn-glycero-3-phospho-L-ethanolamine]",Kd,fXa,91 µM
same,critical micelle concentration (CMC),[2],1.2 mM
same,Stoichiometry (Average) of lipid binding to PZ,PZ [3],2.0 (1.93 ± 0.2)
same,ΔP (difference in phosphate concentration),PZ [3]; [PZ] 15 μM,28.9 ± 0.08
same,ΔP (difference in phosphate concentration),PZ [3]; [PZ] 20 μM,31.8 ± 0.2
same,ΔP (difference in phosphate concentration),PZ [3]; [PZ] 30 μM,42.8 ± 0.6
same,binding to PZ in equilibrium dialysis without Ca2+,PZ [3],did not detect any binding
same,Kd,"PZ [1]; 150 nM PZ, 5 mM CaCl2, pH 7.5, 25° C, no pre-incubation lipid, single-site binding model, listed as PE, read-out: apparent Kd for binding to PZ",~48 µM
same,Kd,PZ [1]; [4],47.6 ± 8.2 µM
same,Kd,PZ [1]; [5],172 µM
same,Kd in 1 mM Ca2+ relative to Kd in 5 mM Ca2+,PZ [1],about 3.5 fold
same,binding to PZ with excess EDTA,PZ [1],did not observe any binding
"CCCCCC(=O)OC[C@H](COP(=O)(O)OC[C@H](N)C(=O)O)OC(=O)CCCCC [C6PS, 1,2-dicaproyl-sn-glycero-3-phospho-L-serine]",Kd,fXa,86 µM
same,critical micelle concentration (CMC),[2],0.95 mM
same,Stoichiometry (Average) of lipid binding to PZ,PZ [3],2.0 (1.96 ± 0.1)
same,ΔP (difference in phosphate concentration),PZ [3]; [PZ] 15 μM,27.6 ± 0.2
same,ΔP (difference in phosphate concentration),PZ [3]; [PZ] 20 μM,32.3 ± 0.09
same,ΔP (difference in phosphate concentration),PZ [3]; [PZ] 30 μM,45.3 ± 0.1
same,binding to PZ in equilibrium dialysis without Ca2+,PZ [3],did not detect any binding
same,Kd,PZ [1]; [4],47.7 ± 10.7 µM
same,Kd,PZ [1]; [5],165 µM
same,Kd in 1 mM Ca2+ relative to Kd in 5 mM Ca2+,PZ [1],about 3.5 fold
same,binding to PZ with excess EDTA,PZ [1],did not observe any binding
CCCCCC(=O)OC[C@H](COP(=O)(O)OCC(O)CO)OC(=O)CCCCC (stereo partly shown) [C6PG],Kd,PZ [1]; [4],131 ± 39 µM
same,effect of pre-incubation of PZ with C6PS on affinity of PZ towards the lipid,PZ [1],did not alter the affinity; also recorded: did not enhance the affinity
same,lower binding affinity to PZ compared to PS and PE,PZ [1],~ 3 fold
